The values below come from ChEMBL document CHEMBL3507680, “University of Dundee, Gates Library screen for HepG2 cell viability”.

The nature of this series: Human HepG2 cell viability assay in 384 well format. Also on record: dose 125 nL, time 70.5 hour; cytotoxicity at 70.5 h: concentration not given beside the values. Conditions: HepG2 cells, read-out: Inhibition. Type of series: toxicity, cell-based.
Turning to `Cc1nnc(C(C)N2CCc3[nH]c4ccc(Cl)cc4c3C2)o1` (stereo unspecified), the cytotoxicity at 70.5 h was -4.39%.

For the compound `Cc1nnc(C(C)N2CCc3[nH]c4ccccc4c3C2)o1` (stereo unspecified), the cytotoxicity at 70.5 h is -4.16%.

In the case of `O=C(O)c1c(Cl)ncn1-c1cccc2ccccc12`, the cytotoxicity at 70.5 h was -4.51%.

As to `O=C(NC1CCN(c2ccccc2Br)C1)c1c[nH]nn1` (stereo unspecified), the cytotoxicity at 70.5 h was -6.49%.

For `O=C(O)c1cccn1-c1ccc2c(c1)OCCO2`, the cytotoxicity at 70.5 h is -9.54%.

Turning to `Clc1cc(Cl)cc(OCCN2CCC(n3cncn3)CC2)c1`, the cytotoxicity at 70.5 h was -0.108%.

In the case of `CC(C)N1CCN(C(=O)c2ccccc2NCc2cccnc2)CC1`, the cytotoxicity at 70.5 h is -5.19%.

`Cc1cc(=O)c(C(=O)N2CCN(C)c3ccccc3C2)c[nH]1`: the cytotoxicity at 70.5 h was -9.5%.

On to `CC(C)(CO)CCCNC(=O)NC1(c2cccc(F)c2)CC1`, for which the cytotoxicity at 70.5 h is -8.07%.

Turning to `CCC1CN(C)c2ccccc2CN1C(=O)c1c[nH]c(=O)cc1C` (stereo unspecified), the cytotoxicity at 70.5 h was -11.3%.

Consider `O=C(O)c1c(Cl)ncn1-c1ccccc1`, for which the cytotoxicity at 70.5 h was -9.78%.

For the compound `CS(=O)(=O)CCCN(CCc1cccc(F)c1)C1CC1`, the cytotoxicity at 70.5 h was found to be 21.4%.

Consider `Cc1cccc(C)c1OCCCN1CCC(n2cncn2)CC1`, for which the cytotoxicity at 70.5 h was 3.77%.

`O=C(NC1CCN(c2ccccc2OC(F)F)C1)c1c[nH]nn1` (stereo unspecified): the cytotoxicity at 70.5 h was -10.2%.

For the compound `CC1(C)CN=C(N2CCN(CC3CCCO3)CC2)S1` (stereo unspecified), the cytotoxicity at 70.5 h was -7.36%.

Take `CCc1nc(CNC(C)(CO)C2CCCCC2)no1` (stereo unspecified): the cytotoxicity at 70.5 h stood at 15.6%.

Take `COc1ccc(N(Cc2ccco2)C(=O)COC(C)C)cc1F`: the cytotoxicity at 70.5 h is -7.47%.

With `COc1c(CNC(C)C(=O)NC2CCCC2)c(C(C)C)nn1C` (stereo unspecified), the cytotoxicity at 70.5 h is -6.92%.

In the case of `Clc1ccc(-c2cnc(CNC3CCc4ncnn4C3)o2)cc1` (stereo unspecified), the cytotoxicity at 70.5 h is -12.9%.

Take `CCCN(CC(F)F)c1cc(COC)nc2ncnn12`: the cytotoxicity at 70.5 h was -9.58%.

Consider `COCc1cc(N(Cc2ccsc2)C2CC2)n2ncnc2n1`, for which the cytotoxicity at 70.5 h is -6.87%.

In the case of `Cc1cc(C(=O)Nc2nnn[nH]2)ccc1I`, the cytotoxicity at 70.5 h is -5.12%.

`CCC(C)(N)c1nc(=O)c(C)c(C)[nH]1` (stereo unspecified): the cytotoxicity at 70.5 h is -7.88%.

For `CC(NC(=O)N1CCC(CO)CC1)c1csc2ccccc12` (stereo unspecified), the cytotoxicity at 70.5 h is -1.97%.

Turning to `O=C(CN1CCOc2ccc(Cl)cc21)NCCCn1cccn1`, the cytotoxicity at 70.5 h was found to be 9.56%.

As to `CN(Cc1nnc(-c2ccco2)o1)Cc1nc2c(s1)CCCC2`, the cytotoxicity at 70.5 h was -11.2%.

Turning to `O=C(O)c1csc(S(=O)(=O)N2CCCc3cccc(OC(F)F)c32)c1`, the cytotoxicity at 70.5 h is -5.21%.

Regarding `OCC(CO)Nc1ccc2ccc(Cl)c(Cl)c2n1`, the cytotoxicity at 70.5 h was 19.4%.

Consider `Cc1cccc(S(=O)(=O)NCC(C)(C)CC(C)O)c1C#N` (stereo unspecified), for which the cytotoxicity at 70.5 h was -6.31%.

`CC(O)CC(C)(C)CNS(=O)(=O)c1cccc(Cl)c1C#N` (stereo unspecified): the cytotoxicity at 70.5 h was -10%.

As for `CCN(C(=O)CNC1CCc2ncnn2C1)C1=CCCCC1` (stereo unspecified), the cytotoxicity at 70.5 h was found to be 4.5%.

With `O=C(NCCCC(=O)N1CCN(CC2CC2)c2ccccc21)C1CC1`, the cytotoxicity at 70.5 h was -7.6%.

In the case of `Cc1cc(C)n(-c2ccc(C(=O)N3CCCC3c3cnn(C)c3)cc2)n1` (stereo unspecified), the cytotoxicity at 70.5 h was -5.54%.

On to `C[S+]([O-])c1nncn1CCCc1ccc(Cl)cc1` (stereo unspecified), for which the cytotoxicity at 70.5 h is -2.94%.

`CCCC(=O)N1CCCCC1C(=O)Nc1ccc(-c2nnc[nH]2)cc1` (stereo unspecified): the cytotoxicity at 70.5 h is -5.35%.

Regarding `CCC(C)C(=O)NCCc1nc(C(F)(F)F)cs1` (stereo unspecified), the cytotoxicity at 70.5 h was -6.38%.

Turning to `CC(NC(=O)NCCc1nc(C(F)(F)F)cs1)C(=O)N(C)C` (stereo unspecified), the cytotoxicity at 70.5 h is -7.19%.

For `CC(C)C(O)CNC(=O)Nc1cnn(Cc2ccccc2)c1` (stereo unspecified), the cytotoxicity at 70.5 h was -1.15%.

`CC(C)CN1C(=O)C2(CCCC2)NC1c1cn(C)c(=O)n(C)c1=O` (stereo unspecified): the cytotoxicity at 70.5 h turned out to be 0.777%.

Regarding `CCc1c(C)[nH]c(C(C)(N)CC)nc1=O` (stereo unspecified), the cytotoxicity at 70.5 h was -10.4%.

`CCc1c(C)[nH]c(C(C)(C)N)nc1=O`: the cytotoxicity at 70.5 h was -7.1%.
